Earlier results in patent publication US4927638A, “Etoposide solutions” (Bristol-Myers Company, priority 1988, dated 1990).

What was measured:
[1] = with water, ethanol, propylene glycol, isopropyl myristate, diethyl ether, acetone, corn oil, cottonseed oil, etc.
[2] = oral (capsules or solution), of that found after intravenous administration; patients
[3] = background statement

| miscibility [1] | Structure (SMILES) | oral bioavailability [2] | solubility in water [3] |
| --- | --- | --- | --- |
| miscible | CO[C@H]1CO[C@H]2[C@@H]1OC[C@H]2OC [Dimethylisosorbide, dimethylisosorbide] |  |  |
|  | COc1cc([C@@H]2c3cc4c(cc3[C@@H](O[C@@H]3O[C@@H]5CO[C@@H](C)O[C@H]5[C@H](O)[C@H]3O)[C@H]3COC(=O)[C@H]23)OCO4)cc(OC)c1O [Etoposide, 4'-demethylepipodophyllotoxin-9-(4,6-O(R)-ethylidine-β-D-glucopyranoside)] | about 50% | only sparingly soluble |
